According to ChEMBL document CHEMBL1146418, “A new flavone C-glycoside and antiplatelet and vasorelaxing flavones from Gentiana arisanensis” (J Nat Prod, 1997):

How the values were obtained:
Platelet [1] = assay: Inhibition of platelet activating factor-induced platelet aggregation in rabbit plasma at 300 uM preincubated 3 mins before addition of thrombin by turbidimetric method; format: functional, Oryctolagus cuniculus; set-up: scale not given: the % may be the effect or the level left
Platelet [2] = assay: Inhibition of thrombin-induced platelet aggregation in rabbit plasma at 300 uM preincubated 3 mins before addition of thrombin by turbidimetric method; format: functional, Oryctolagus cuniculus; set-up: scale not given: the % may be the effect or the level left
Platelet [3] = assay: Inhibition of collagen-induced platelet aggregation in rabbit plasma at 300 uM preincubated 3 mins before addition of thrombin by turbidimetric method; format: functional, Oryctolagus cuniculus; set-up: scale not given: the % may be the effect or the level left
Platelet [4] = assay: Inhibition of arachidonic acid-induced platelet aggregation in rabbit plasma at 300 uM preincubated 3 mins before addition of thrombin by turbidimetric method; format: functional, Oryctolagus cuniculus; set-up: scale not given: the % may be the effect or the level left
Aorta [5] = assay: Inhibition of noradrenaline-induced Wistar rat thoracic aorta phasic contraction in high K+ medium at 150 uM pretreated 15 mins before addition of Ca2+ and K+ relative to control; format: functional; set-up: scale not given: the % may be the effect or the level left
Aorta [6] = assay: Inhibition of noradrenaline-induced Wistar rat thoracic aorta tonic contraction in high K+ medium at 150 uM pretreated 15 mins before addition of Ca2+ and K+ relative to control; format: functional; set-up: scale not given: the % may be the effect or the level left
Aorta [7] = assay: Inhibition of Ca2+-induced Wistar rat thoracic aorta contraction at 150 uM in high K+ medium pretreated 15 mins before addition of Ca2+ and K+ relative to control; format: functional; set-up: scale not given: the % may be the effect or the level left
Aorta [8] = assay: Inhibition of noradrenaline-induced Wistar rat thoracic aorta tonic contraction in high K+ medium at 30 uM pretreated 15 mins before addition of Ca2+ and K+ relative to control; format: functional; set-up: scale not given: the % may be the effect or the level left
Aorta [9] = assay: Inhibition of Ca2+-induced Wistar rat thoracic aorta contraction at 300 uM in high K+ medium pretreated 15 mins before addition of Ca2+ and K+ relative to control; format: functional; set-up: scale not given: the % may be the effect or the level left
Aorta [10] = assay: Inhibition of noradrenaline-induced Wistar rat thoracic aorta phasic contraction in high K+ medium at 300 uM pretreated 15 mins before addition of Ca2+ and K+ relative to control; format: functional; set-up: scale not given: the % may be the effect or the level left
Platelet [11] = assay: Inhibition of arachidonic acid-induced platelet aggregation in rabbit plasma at 60 uM preincubated 3 mins before addition of thrombin by turbidimetric method; format: functional, Oryctolagus cuniculus; set-up: scale not given: the % may be the effect or the level left
Aorta [12] = assay: Inhibition of Ca2+-induced Wistar rat thoracic aorta contraction at 90 uM in high K+ medium pretreated 15 mins before addition of Ca2+ and K+ relative to control; format: functional; set-up: scale not given: the % may be the effect or the level left
Aorta [13] = assay: Inhibition of noradrenaline-induced Wistar rat thoracic aorta tonic contraction in high K+ medium at 300 uM pretreated 15 mins before addition of Ca2+ and K+ relative to control; format: functional; set-up: scale not given: the % may be the effect or the level left
Aorta [14] = assay: Inhibition of noradrenaline-induced Wistar rat thoracic aorta tonic contraction in high K+ medium at 90 uM pretreated 15 mins before addition of Ca2+ and K+ relative to control; format: functional; set-up: scale not given: the % may be the effect or the level left
Aorta [15] = assay: Inhibition of Ca2+-induced Wistar rat thoracic aorta contraction in high K+ medium pretreated 15 mins before addition of Ca2+ and K+
Aorta [16] = assay: Inhibition of noradrenaline-induced Wistar rat thoracic aorta phasic contraction in high K+ medium pretreated 15 mins before addition of Ca2+ and K+ relative to control
Platelet [17] = assay: Inhibition of arachidonic acid-induced platelet aggregation in rabbit plasma at 30 uM preincubated 3 mins before addition of thrombin by turbidimetric method; format: functional, Oryctolagus cuniculus; set-up: scale not given: the % may be the effect or the level left
Platelet [18] = assay: Inhibition of arachidonic acid-induced platelet aggregation in rabbit plasma at 15 uM preincubated 3 mins before addition of thrombin by turbidimetric method; format: functional, Oryctolagus cuniculus; set-up: scale not given: the % may be the effect or the level left
Aorta [19] = assay: Inhibition of noradrenaline-induced Wistar rat thoracic aorta phasic contraction in high K+ medium at 30 uM pretreated 15 mins before addition of Ca2+ and K+ relative to control; format: functional; set-up: scale not given: the % may be the effect or the level left
Aorta [20] = assay: Inhibition of noradrenaline-induced Wistar rat thoracic aorta phasic contraction in high K+ medium at 90 uM pretreated 15 mins before addition of Ca2+ and K+ relative to control; format: functional; set-up: scale not given: the % may be the effect or the level left
Aorta [21] = assay: Inhibition of noradrenaline-induced Wistar rat thoracic aorta tonic contraction in high K+ medium pretreated 15 mins before addition of Ca2+ and K+ relative to control
Aorta [22] = assay: Inhibition of noradrenaline-induced Wistar rat thoracic aorta tonic contraction in high K+ medium at 9 uM pretreated 15 mins before addition of Ca2+ and K+ relative to control; format: functional; set-up: scale not given: the % may be the effect or the level left
Aorta [23] = assay: Inhibition of Ca2+-induced Wistar rat thoracic aorta contraction at 30 uM in high K+ medium pretreated 15 mins before addition of Ca2+ and K+ relative to control; format: functional; set-up: scale not given: the % may be the effect or the level left
Platelet [24] = assay: Inhibition of arachidonic acid-induced platelet aggregation in rabbit plasma preincubated 3 mins before addition of thrombin by turbidimetric method; details: Oryctolagus cuniculus
Platelet [25] = assay: Inhibition of arachidonic acid-induced platelet aggregation in rabbit plasma at 150 uM preincubated 3 mins before addition of thrombin by turbidimetric method; format: functional, Oryctolagus cuniculus; set-up: scale not given: the % may be the effect or the level left
Aorta [26] = assay: Inhibition of noradrenaline-induced Wistar rat thoracic aorta phasic contraction in high K+ medium at 9 uM pretreated 15 mins before addition of Ca2+ and K+ relative to control; format: functional; set-up: scale not given: the % may be the effect or the level left
Platelet [27] = assay: Inhibition of thrombin-induced platelet aggregation in rabbit plasma at 50 uM preincubated 3 mins before addition of thrombin by turbidimetric method; format: functional, Oryctolagus cuniculus; set-up: scale not given: the % may be the effect or the level left
Platelet [28] = assay: Inhibition of arachidonic acid-induced platelet aggregation in rabbit plasma at 50 uM preincubated 3 mins before addition of thrombin by turbidimetric method; format: functional, Oryctolagus cuniculus; set-up: scale not given: the % may be the effect or the level left
Platelet [29] = assay: Inhibition of collagen-induced platelet aggregation in rabbit plasma at 50 uM preincubated 3 mins before addition of thrombin by turbidimetric method; format: functional, Oryctolagus cuniculus; set-up: scale not given: the % may be the effect or the level left
Platelet [30] = assay: Inhibition of platelet activating factor-induced platelet aggregation in rabbit plasma at 50 uM preincubated 3 mins before addition of thrombin by turbidimetric method; format: functional, Oryctolagus cuniculus; set-up: scale not given: the % may be the effect or the level left
Platelet [31] = assay: Inhibition of arachidonic acid-induced platelet aggregation in rabbit plasma at 100 uM preincubated 3 mins before addition of thrombin by turbidimetric method; format: functional, Oryctolagus cuniculus; set-up: scale not given: the % may be the effect or the level left
Platelet [32] = assay: Inhibition of collagen-induced platelet aggregation in rabbit plasma at 100 uM preincubated 3 mins before addition of thrombin by turbidimetric method; format: functional, Oryctolagus cuniculus; set-up: scale not given: the % may be the effect or the level left

Compound: O=c1cc(-c2ccc(O)cc2)oc2cc(O)c([C@@H]3O[C@H](CO[C@@H]4O[C@H](CO)[C@@H](O)[C@H](O)[C@H]4O)[C@@H](O)[C@H](O)[C@H]3O)c(O)c12
- Activity (Platelet [1]): 84.6%
- Activity (Platelet [2]): 87.4%
- Activity (Platelet [3]): 85.6%
- Activity (Platelet [4]): 84.9%

Compound: O=c1cc(-c2ccc(O)c(O)c2)oc2cc(O)c([C@@H]3O[C@H](CO)[C@@H](O)[C@H](O)[C@H]3O)c(O)c12 [ISOORIENTIN]
- Activity (Platelet [1]): 77.1%
- Activity (Aorta [5]): 91.7%
- Activity (Platelet [2]): 85.5%
- Activity (Platelet [3]): 60.8%
- Activity (Platelet [4]): 66.9%
- Activity (Aorta [6]): 86.6%
- Activity (Aorta [7]): 106%

Compound: O=c1cc(-c2ccc(O)c(O)c2)oc2cc(O)cc(O)c12 [LUTEOLIN]
- Activity (Aorta [8]): 52.3%
- Activity (Platelet [1]): 53%
- Activity (Aorta [9]): 28.6%
- Activity (Aorta [10]): 14.9%
- Activity (Platelet [11]): 20.5%
- Activity (Platelet [2]): 34.7%
- Activity (Platelet [3]): 2.8%
- Activity (Aorta [12]): 49.9%
- Activity (Aorta [13]): 22.9%
- Activity (Aorta [14]): 32.6%
- IC50 (Aorta [15]): 156 µM
- IC50 (Aorta [16]): 68 µM
- Activity (Platelet [17]): 53%
- Activity (Platelet [18]): 79.2%
- Activity (Aorta [19]): 64.7%
- Activity (Platelet [4]): 0%
- Activity (Aorta [20]): 29.3%
- IC50 (Aorta [21]): 72 µM
- Activity (Aorta [22]): 99.2%
- Activity (Aorta [23]): 69.5%
- IC50 (Platelet [24]): 43.5 µM
- Activity (Platelet [25]): 0%
- Activity (Aorta [26]): 92.8%

Compound: CC(=O)Oc1ccccc1C(=O)O [ASPIRIN]
- Activity (Platelet [27]): 91.9%
- Activity (Platelet [28]): 0%
- Activity (Platelet [29]): 85.4%
- Activity (Platelet [30]): 90.5%

Compound: O=c1cc(-c2ccc(O)cc2)oc2cc(O)c([C@@H]3O[C@H](CO)[C@@H](O)[C@H](O)[C@H]3O)c(O)c12 [ISOVITEXIN]
- Activity (Platelet [1]): 83.9%
- Activity (Platelet [2]): 36.5%
- Activity (Platelet [3]): 84.7%
- Activity (Platelet [4]): 85.1%

Compound: O=c1cc(-c2ccc(O)c(O)c2)oc2cc(O)c([C@@H]3O[C@H](CO[C@@H]4O[C@H](CO)[C@@H](O)[C@H](O)[C@H]4O)[C@@H](O)[C@H](O)[C@H]3O)c(O)c12
- Activity (Platelet [1]): 83.5%
- Activity (Platelet [2]): 85.7%
- Activity (Platelet [3]): 85.4%
- Activity (Platelet [4]): 83.3%

Compound: CC(=O)OC[C@H]1O[C@@H](c2c(OC(C)=O)cc3oc(-c4ccc(OC(C)=O)c(OC(C)=O)c4)cc(=O)c3c2OC(C)=O)[C@H](OC(C)=O)[C@@H](OC(C)=O)[C@@H]1OC(C)=O [ISOORIENTIN PERACETATE]
- Activity (Platelet [1]): 74.7%
- Activity (Platelet [2]): 79%
- Activity (Platelet [3]): 68.6%
- Activity (Platelet [4]): 72.4%

Compound: CC(=O)OC[C@H]1O[C@@H](OC[C@H]2O[C@@H](c3c(OC(C)=O)cc4oc(-c5ccc(OC(C)=O)c(OC(C)=O)c5)cc(=O)c4c3OC(C)=O)[C@H](OC(C)=O)[C@@H](OC(C)=O)[C@@H]2OC(C)=O)[C@H](OC(C)=O)[C@@H](OC(C)=O)[C@@H]1OC(C)=O
- Activity (Platelet [31]): 79.9%
- Activity (Platelet [32]): 80.5%

Compound: O=c1cc(-c2ccc(O)c(O)c2)oc2cc(O[C@@H]3O[C@H](CO)[C@@H](O)[C@H](O)[C@H]3O)cc(O)c12 [GALUTEOLIN]
- Activity (Platelet [1]): 71.9%
- Activity (Aorta [5]): 84.5%
- Activity (Platelet [2]): 87%
- Activity (Platelet [3]): 80.5%
- Activity (Platelet [4]): 80.2%
- Activity (Aorta [6]): 88.2%
- Activity (Aorta [7]): 93.4%
